Source: patent US20050112573A1, “Method of detecting toxic substance” (priority 2001, published 2005)

Test system: yeast genes (level of expressed mRNA)
Assay: DNA chip analysis of expressed mRNA of yeast genes after 2 h culture with a toxic chemical substance
Type: cell-based, Saccharomyces cerevisiae S288C
Procedure: Yeast (Saccharomyces cerevtisiae S288C (α SUC2mal mel gap2 CUP1)) were cultured at 25° C. on YPD medium (yeast extract 1%, polypepton 2%, glucose 2%). One of toxic chemical substances was added to the cell at logarithmic growth phase, and the cell was further cultured for two hours. Cell was cultured without any chemical substance in the same condition, and was used as control. Concentrations of the chemical substances were defined to inhibit the growth of the yeast but not lead to death.
After the completion of cultivation, the culture was centrifuged to collect the cells. To the cells, sodium acetate buffer (50 mM sodium acetate, 10 mM EDTA, 1% SDS) was added, and the mixture was shaken at 65° C. for five minutes, followed by returning to room temperature, and obtaining the supernatant, which procedure was repeated two times. To the supernatant, ½ amount of a solution of phenol/chloroform was added, and the mixture was centrifuged to give a supernatant, which was added with an equal amount of chloroform, and the mixture was centrifuged to give a supernatant. To the supernatant, an equal amount of isopropanol containing 0.3 M sodium acetate was added, and the mixture was allowed to stand at room temperature for 30 minutes, after which the mixture was centrifuged to give a sediment of the whole RNAs. Seventy % ethanol was added to the sediment, and the mixture was again centrifuged to give a sediment, which was then dried and dissolved in water. mRNA was isolated from the whole RNAs as followings. In view of the fact that a poly A chain is attached to the 3′ terminus of mRNA, a polynucleotide having a poly T structure which was immobilized on the surface of latex beads was used to trap the mRNA, and then the mRNA was washed and eluted with spine column (Oligotex-dT30<Super>mRNA Purification Kit, Takara). Reverse transcription of the mRNA was conducted with a reverse transcriptase (Super Script II Reverse Transcriptase; catalogue No. 18064-014, GibcoBRL) using fluorescence-labeled nucleotides to give cDNAs that were introduced with Cy3-dUTP or Cy5-dUTP during the reverse transcription.
The labeled cDNAs were dissolved in TE buffer (10 mM Tris-HCl/1 mM EDTA, pH8.0), and the solution was dropped on the DNA chip containing the whole genes of yeast (DNA Chip Research Inc. Japan) so that the cDNAs were hybridized on the DNA chip at 65° C. for over 12 hours. The fluoresces intensity of the DNA chip was read with a scanner, and the ratio relative to the fluorescence intensity resulting from the absence of chemical substance was estimated as the following, which is shown in Tables 1 to 9: [formula]
In the Tables, “Intensity” indicated in the rightmost column is a value of the level of expressed mRNA of each gene in control cells as divided by the average level of the expressions of the whole genes.

Q: Which “level of expressed mRNA in the presence of chemical substance/in its absence” value (shortened to “level … of chemical substance/in its absence”) (gene YAL012W) does the source give for `CCCCC[C@H](O)CC(=O)CCc1ccc(O)c(OC)c1` [(13), gingerol] here?
A: Its value is 1.1.

Q: What about the “The level of expressed mRNA in the presence of chemical substance/absence: YAL014C” value (gene YAL014C) of the same compound?
A: Its value is 1.5.

Q: And the “The level of expressed mRNA in the presence of chemical substance/absence: YAL017W” value (gene YAL017W)?
A: The value was 2.2.

Q: What about the “The level of expressed mRNA in the presence of chemical substance/absence: YAL018C” value (gene YAL018C) of the same compound?
A: Its value is 1.3.

Q: And the “level … of chemical substance/in its absence” value (gene YAL038W)?
A: Its value is 1.8.

Q: What about the “level … of chemical substance/in its absence” value (gene YAL044C) of the same compound?
A: Its value is 1.1.

Q: And the “The level of expressed mRNA in the presence of chemical substance/absence: YAL049C” value (gene YAL049C)?
A: Its value is 1.6.

Q: What about the “level … of chemical substance/in its absence” value (gene YAL054C) of the same compound?
A: Its value is 1.8.

Q: What about the “The level of expressed mRNA in the presence of chemical substance/absence: YAR047C” value (gene YAR047C) of the same compound?
A: Its value is 1.4.

Q: And the “The level of expressed mRNA in the presence of chemical substance/absence: YAR064W” value (gene YAR064W)?
A: The value was 1.1.

Q: What about the “level … of chemical substance/in its absence” value (gene YAR071W) of the same compound?
A: Its value is 0.3.

Q: What about the “level … of chemical substance/in its absence” value (gene YBL001C) of the same compound?
A: The value was 1.0.

Q: What about the “The level of expressed mRNA in the presence of chemical substance/absence: YBL044W” value (gene YBL044W) of the same compound?
A: Its value is 0.7.

Q: And the “The level of expressed mRNA in the presence of chemical substance/absence: YBL100C” value (gene YBL100C)?
A: Its value is 0.9.

Q: What about the “The level of expressed mRNA in the presence of chemical substance/absence: YBR012C” value (gene YBR012C) of the same compound?
A: Its value is 2.1.

Q: And the “The level of expressed mRNA in the presence of chemical substance/absence: YBR013C” value (gene YBR013C)?
A: Its value is 2.0.

Q: What about the “level … of chemical substance/in its absence” value (gene YBR014C) of the same compound?
A: Its value is 0.9.

Q: What about the “level … of chemical substance/in its absence” value (gene YBR023C) of the same compound?
A: The value was 0.5.

Q: And the “level … of chemical substance/in its absence” value (gene YBR029C)?
A: The value was 1.7.

Q: What about the “level … of chemical substance/in its absence” value (gene YBR035C) of the same compound?
A: The value was 1.8.

Q: And the “level … of chemical substance/in its absence” value (gene YBR050C)?
A: The value was 1.3.

Q: What about the “The level of expressed mRNA in the presence of chemical substance/absence: YBR051W” value (gene YBR051W) of the same compound?
A: The value was 1.2.

Q: What about the “The level of expressed mRNA in the presence of chemical substance/absence: YBR063C” value (gene YBR063C) of the same compound?
A: Its value is 1.7.

Q: And the “The level of expressed mRNA in the presence of chemical substance/absence: YBR066C” value (gene YBR066C)?
A: Its value is 0.6.

Q: And the “level … of chemical substance/in its absence” value (gene YBR068C)?
A: The value was 2.2.

Q: What about the “level … of chemical substance/in its absence” value (gene YBR111C) of the same compound?
A: The value was 1.6.

Q: And the “The level of expressed mRNA in the presence of chemical substance/absence: YBR124W” value (gene YBR124W)?
A: Its value is 0.9.

Q: What about the “level … of chemical substance/in its absence” value (gene YBR126C) of the same compound?
A: Its value is 2.1.

Q: What about the “The level of expressed mRNA in the presence of chemical substance/absence: YBR129C” value (gene YBR129C) of the same compound?
A: Its value is 1.3.

Q: And the “level … of chemical substance/in its absence” value (gene YBR145W)?
A: Its value is 2.0.

Q: What about the “The level of expressed mRNA in the presence of chemical substance/absence: YBR162C” value (gene YBR162C) of the same compound?
A: The value was 0.7.

Q: And the “level … of chemical substance/in its absence” value (gene YBR183W)?
A: Its value is 1.4.

Q: And the “level … of chemical substance/in its absence” value (gene YBR222C)?
A: Its value is 1.6.

Q: What about the “The level of expressed mRNA in the presence of chemical substance/absence: YBR255W” value (gene YBR255W) of the same compound?
A: Its value is 1.4.

Q: What about the “The level of expressed mRNA in the presence of chemical substance/absence: YBR281C” value (gene YBR281C) of the same compound?
A: The value was 1.2.

Q: What about the “The level of expressed mRNA in the presence of chemical substance/absence: YBR287W” value (gene YBR287W) of the same compound?
A: Its value is 3.4.

Q: What about the “level … of chemical substance/in its absence” value (gene YBR299W) of the same compound?
A: The value was 0.7.

Q: And the “level … of chemical substance/in its absence” value (gene YCL009C)?
A: Its value is 1.6.

Q: What about the “The level of expressed mRNA in the presence of chemical substance/absence: YCL042W” value (gene YCL042W) of the same compound?
A: The value was 7.5.

Q: What about the “The level of expressed mRNA in the presence of chemical substance/absence: YCL044C” value (gene YCL044C) of the same compound?
A: The value was 1.7.

Q: What about the “The level of expressed mRNA in the presence of chemical substance/absence: YCL056C” value (gene YCL056C) of the same compound?
A: The value was 1.3.

Q: And the “level … of chemical substance/in its absence” value (gene YCL064C)?
A: Its value is 1.6.

Q: And the “The level of expressed mRNA in the presence of chemical substance/absence: YCR007C” value (gene YCR007C)?
A: Its value is 1.5.

Q: And the “level … of chemical substance/in its absence” value (gene YCR037C)?
A: The value was 1.3.

Q: What about the “level … of chemical substance/in its absence” value (gene YCR048W) of the same compound?
A: The value was 1.3.

Q: And the “level … of chemical substance/in its absence” value (gene YCR098C)?
A: Its value is 1.4.

Q: What about the “level … of chemical substance/in its absence” value (gene YDL022W) of the same compound?
A: Its value is 1.5.

Q: What about the “The level of expressed mRNA in the presence of chemical substance/absence: YDL046W” value (gene YDL046W) of the same compound?
A: Its value is 1.5.

Q: And the “The level of expressed mRNA in the presence of chemical substance/absence: YDL089W” value (gene YDL089W)?
A: Its value is 1.9.

Q: What about the “The level of expressed mRNA in the presence of chemical substance/absence: YDL173W” value (gene YDL173W) of the same compound?
A: The value was 1.7.

Q: What about the “The level of expressed mRNA in the presence of chemical substance/absence: YDL193W” value (gene YDL193W) of the same compound?
A: The value was 1.4.

Q: And the “The level of expressed mRNA in the presence of chemical substance/absence: YDL233W” value (gene YDL233W)?
A: The value was 1.8.

Q: And the “level … of chemical substance/in its absence” value (gene YDR009W)?
A: Its value is 1.2.

Q: And the “level … of chemical substance/in its absence” value (gene YDR019C)?
A: Its value is 1.0.

Q: And the “The level of expressed mRNA in the presence of chemical substance/absence: YDR071C” value (gene YDR071C)?
A: Its value is 1.3.

Q: And the “The level of expressed mRNA in the presence of chemical substance/absence: YDR078C” value (gene YDR078C)?
A: Its value is 1.1.

Q: What about the “The level of expressed mRNA in the presence of chemical substance/absence: YDR090C” value (gene YDR090C) of the same compound?
A: Its value is 0.8.
